In this data set the test system is rodent carcinogenicity bioassays, tumor incidence. The data set can be described thus: CCRIS carcinogenicity studies. The method, boiled down:
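Archive of carcinogenicity, mutagenicity, tumor promotion and tumor inhibition results drawn from journals, NCI reports and other sources, expert-reviewed; covers 1985-2011 and is no longer updated.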

Carcinogen call data for two molecules are collected here from PubChem BioAssay AID1259411 (Chemical Carcinogenesis Research Information System (CCRIS), 2018).

The source made the active and inactive calls. How the calls were made is not given here.

With `CC1CN(N=O)CC(C)O1` (centres undefined), the carcinogen call was “active; positive” (Species: FISH, Strain/Sex: SHASTA RAINBOW TROUT/MALE, FEMALE, Route: ORAL, Dose: 0, 1556 PPM IN DIET FOR 18 MO (STUDY DURATION: 18 MO), Tumor Site: Type of Lesion: LIVER: CARCINOMA, STOMACH: PAPILLOMA); “active; positive” (Species: HAMSTER, Strain/Sex: EUROPEAN/FEMALE, Route: GAVAGE, Dose: 0, 37 MG/KG 1/WK FOR DURATION OF STUDY (STUDY DURATION: LIFETIME), Tumor Site: Type of Lesion: NASAL CAVITY: TUMOR, TRACHEA: TUMOR, LIVER: HEMANGIOENDOTHELIOMA, Tumor Site: Type of Lesion: NASAL CAVITY: TUMOR, TRACHEA: TUMOR, LIVER: HEMANGIOENDOTHELIOMA); “active; positive” (Species: HAMSTER, Strain/Sex: EUROPEAN/FEMALE, Route: GAVAGE, Dose: 0, 112 MG/KG 1/WK FOR DURATION OF STUDY (STUDY DURATION: LIFETIME), Tumor Site: Type of Lesion: NASAL CAVITY: TUMOR, TRACHEA: TUMOR, LUNG: TUMOR, Tumor Site: Type of Lesion: NASAL CAVITY: TUMOR, TRACHEA: TUMOR, LUNG: TUMOR); “active; positive” (Species: HAMSTER, Strain/Sex: EUROPEAN/FEMALE, Route: SUBCUTANEOUS, Dose: 0, 85 MG/KG 1/WK FOR DURATION OF STUDY (STUDY DURATION: LIFETIME), Tumor Site: Type of Lesion: NASAL CAVITY: TUMOR, LARYNX: TUMOR, TRACHEA: TUMOR, LUNG: TUMOR, Tumor Site: Type of Lesion: NASAL CAVITY: TUMOR, LARYNX: TUMOR, TRACHEA: TUMOR, LUNG: TUMOR); “active; positive” (Species: HAMSTER, Strain/Sex: EUROPEAN/MALE, Route: GAVAGE, Dose: 0, 37 MG/KG 1/WK FOR DURATION OF STUDY (STUDY DURATION: LIFETIME), Tumor Site: Type of Lesion: NASAL CAVITY: TUMOR, LIVER: HEMANGIOENDOTHELIOMA); “active; positive” (Species: HAMSTER, Strain/Sex: EUROPEAN/MALE, Route: GAVAGE, Dose: 0, 112 MG/KG 1/WK FOR DURATION OF STUDY (STUDY DURATION: LIFETIME), Tumor Site: Type of Lesion: NASAL CAVITY: TUMOR, LUNG: TUMOR). Also, the carcinogen call is, setting by setting: (Species: HAMSTER, Strain/Sex: EUROPEAN/MALE, Route: SUBCUTANEOUS, Dose: 0, 85 MG/KG 1/WK FOR DURATION OF STUDY (STUDY DURATION: LIFETIME), Tumor Site: Type of Lesion: NASAL CAVITY: TUMOR, LARYNX: TUMOR, TRACHEA: TUMOR, LUNG: TUMOR, Tumor Site: Type of Lesion: NASAL CAVITY: TUMOR, LARYNX: TUMOR, TRACHEA: TUMOR, LUNG: TUMOR) “active; positive”; (Species: HAMSTER, Strain/Sex: SYRIAN/MALE,FEMALE, Route: GAVAGE, Dose: 9-74 MG/KG 1/WK FOR LIFE, Tumor Site: Type of Lesion: PANCREAS, TRACHEA, LUNG, LIVER, NASAL CAVITY, FORESTOMACH, GALL BLADDER, LARYNX, Tumor Site: Type of Lesion: PANCREAS, TRACHEA, LUNG, LIVER, NASAL CAVITY, FORESTOMACH, GALL BLADDER, LARYNX) “active; positive”; (Species: HAMSTER, Strain/Sex: SYRIAN/MALE,FEMALE, Route: SUBCUTANEOUS, Dose: 8, 16, 32 MG/KG 1/WK FOR LIFE, Dose: 8, 16, 32 MG/KG 1/WK FOR LIFE, Tumor Site: Type of Lesion: NASAL CAVITY, LARYNX, TRACHEA, LUNG, FORESTOMACH, PANCREAS, VAGINA, Tumor Site: Type of Lesion: NASAL CAVITY, LARYNX, TRACHEA, LUNG, FORESTOMACH, PANCREAS, VAGINA) “active; positive”; (Species: RAT, Strain/Sex: F344/FEMALE, Route: INTRAVESICULAR, Dose: 0, 6 MG IN 0.2 ML ETHANOL: DEIONIZED WATER (1:3) 2/WK FOR 18 WK (TOTAL DOSE 1.5 MMOL) (STUDY DURATION: LIFESPAN), Tumor Site: Type of Lesion: ESOPHAGUS: TUMOR) “active; positive”; (Species: RAT, Strain/Sex: F344/FEMALE, Route: ORAL, Dose: 20 MG/L IN DRINKING WATER FOR 30 WK, Tumor Site: Type of Lesion: ESOPHAGUS: PAPILLOMA, CARCINOMA, TONGUE: PAPILLOMA, CARCINOMA) “active; positive”; (Species: RAT, Strain/Sex: F344/FEMALE, Route: ORAL, Dose: 50 MG/L IN DRINKING WATER FOR 22 WK, Tumor Site: Type of Lesion: ESOPHAGUS: PAPILLOMA, CARCINOMA) “active; positive”. The carcinogen call is, setting by setting: (Species: RAT, Strain/Sex: SPRAGUE-DAWLEY/MALE,FEMALE, Route: SUBCUTANEOUS, Dose: 0, 1/100, 1/10 OF LD50 1/WK FOR LIFE (STUDY DURATION: LIFETIME), Dose: 0, 1/100, 1/10 OF LD50 1/WK FOR LIFE (STUDY DURATION: LIFETIME), Tumor Site: Type of Lesion: ESOPHAGUS: CARCINOMA) “active; positive”; (Species: RAT, Strain/Sex: SPRAGUE-DAWLEY/MALE,FEMALE, Route: SUBCUTANEOUS, Dose: 0, 1/100, 1/10 OF LD50 1/WK FOR LIFE TO RATS WITH ESOPHAGOJEJUNOSTOMY (STUDY DURATION: LIFETIME), Dose: 0, 1/100, 1/10 OF LD50 1/WK FOR LIFE TO RATS WITH ESOPHAGOJEJUNOSTOMY (STUDY DURATION: LIFETIME), Tumor Site: Type of Lesion: ESOPHAGUS: CARCINOMA) “active; positive”; (Species: RAT, Strain/Sex: SPRAGUE-DAWLEY/MALE, Route: ORAL, Dose: 50 MG/L IN DRINKING WATER (20 ML/D 5 D/WK) FOR 30 WK, Tumor Site: Type of Lesion: ESOPHAGUS: PAPILLOMA, SQUAMOUS CELL CARCINOMA, NASAL TURBINATES: ADENOCARCINOMA) “active; positive”.
Take `O=C(O)C(Cl)(Cl)Cl`: the carcinogen call was “inactive; negative” (Species: MOUSE, Strain/Sex: B6C3F1/FEMALE, Route: INTRAPERITONEAL, Dose: 0, 1000 NMOL TOTAL DOSE, 1/3 AND 2/3 OF THE TOTAL DOSE ADMINISTERED AT 8 AND 15 DAYS OF AGE RESPECTIVELY, ANIMALS TERMIN); “inactive; negative” (Species: MOUSE, Strain/Sex: B6C3F1/FEMALE, Route: INTRAPERITONEAL, Dose: 0, 2000 NMOL TOTAL DOSE, 3/7 AND 4/7 OF THE TOTAL DOSE ADMINISTERED AT 8 AND 15 DAYS OF AGE RESPECTIVELY, ANIMALS TERMIN); “active; positive” (Species: MOUSE, Strain/Sex: B6C3F1/FEMALE, Route: ORAL, Dose: 0, 2, 6.67, 20 MMOL/L IN DRINKING WATER FOR 360 D (STUDY DURATION: 360 D), Dose: 0, 2, 6.67, 20 MMOL/L IN DRINKING WATER FOR 360 D (STUDY DURATION: 360 D), Tumor Site: Type of Lesion: LIVER: CARCINOMA); “active; positive” (Species: MOUSE, Strain/Sex: B6C3F1/FEMALE, Route: ORAL, Dose: 0, 2, 6.67, 20 MMOL/L IN DRINKING WATER FOR 576 D (STUDY DURATION: 576 D), Dose: 0, 2, 6.67, 20 MMOL/L IN DRINKING WATER FOR 576 D (STUDY DURATION: 576 D), Tumor Site: Type of Lesion: LIVER: ADENOMA, CARCINOMA); “inactive; negative” (Species: MOUSE, Strain/Sex: B6C3F1/MALE, Route: INTRAPERITONEAL, Dose: 0, 1000 NMOL TOTAL DOSE, 1/3 AND 2/3 OF THE TOTAL DOSE ADMINISTERED AT 8 AND 15 DAYS OF AGE RESPECTIVELY, ANIMALS TERMIN); “inactive; negative” (Species: MOUSE, Strain/Sex: B6C3F1/MALE, Route: INTRAPERITONEAL, Dose: 0, 2000 NMOL TOTAL DOSE, 3/7 AND 4/7 OF THE TOTAL DOSE ADMINISTERED AT 8 AND 15 DAYS OF AGE RESPECTIVELY, ANIMALS TERMIN). Moreover, the carcinogen call (Species: MOUSE, Strain/Sex: B6C3F1/MALE, Route: ORAL, Dose: 0, 1, 2 G/L IN DRINKING WATER FOR 52 WK (STUDY DURATION: 52 WK), Dose: 0, 1, 2 G/L IN DRINKING WATER FOR 52 WK (STUDY DURATION: 52 WK), Tumor Site: Type of Lesion: LIVER: ADENOMA OR HEPATOCELLULAR CARCINOMA) is “active; positive”; the carcinogen call (Species: MOUSE, Strain/Sex: B6C3F1/MALE, Route: ORAL, Dose: 0, 5 G/L (0; 31 MILLIMOLAR) IN DRINKING WATER FOR 61 WK (STUDY DURATION: 61 WK), Dose: 0, 5 G/L (0; 31 MILLIMOLAR) IN DRINKING WATER FOR 61 WK (STUDY DURATION: 61 WK), Tumor Site: Type of Lesion: LIVER: CARCINOMA) is “active; positive”; the carcinogen call (Species: RAT, Strain/Sex: F344/MALE, Route: ORAL, Dose: 0, 0.05, 0.5, 5 G/L IN DRINKING WATER FOR 104 WK (STUDY DURATION: 104 WK), Dose: 0, 0.05, 0.5, 5 G/L IN DRINKING WATER FOR 104 WK (STUDY DURATION: 104 WK)) was “inactive; negative”.
